We go through 3 compounds from patent publication EP0108627A2, “Cephalosporin derivatives and process for producing the same” (SUMITOMO CHEMICAL COMPANY, LIMITED, priority 1982, dated 1984).

The term LD50 denotes the dose expected to kill half of the subjects tested. Read a high LD50 as a less toxic substance.

The structures appear in SMILES notation.

This data set is described as follows: Acute toxicity on mice. The settings on record: mouse, in vivo, po; ICR-slc male mice, 4 weeks old. The protocol: The compounds of Examples 4, 20 and 42 were tested for acute toxicity on mice^*.

`CON=C(C(=O)NC1C(=O)N2C(C(=O)OCC(C)=Cc3ccccc3)=CCS[C@H]12)c1csc(N)n1` (stereo partly drawn) [Example 4, 2-Methyl-3-phenyl-2-propenyl 7-[2-(2-amino-4-thiazolyl)-2-methoxyiminoacetamido]-3-cephem-4-carboxylate] had an LD50 above 5000 mg/kg.

`CC=C(C)COC(=O)C1=CCS[C@@H]2C(NC(=O)C(=NOC)c3csc(N)n3)C(=O)N12` (stereo partly drawn) [Example 42, 2-Methyl-2-butenyl 7-[2-(2-amino-4-thiazolyl)-2-methoxyiminoacetamido]-3-cephem-4-carboxylate]: the LD50 was above 5000 mg/kg.

In turn, `CON=C(C(=O)NC1C(=O)N2C(C(=O)OCC=C(C)C)=CCS[C@H]12)c1csc(N)n1` (stereo partly drawn) [Example 20, 3-Methyl-2-butenyl 7-[2-(2-amino-4-thiazolyl)-2-methoxyiminoacetamido]-3-cephem-4-carboxylate] displayed an LD50 above 5000 mg/kg.
